Experimental data as given in patent US11214547B2, “Crystalline Eltrombopag monoethanolamine salt form D” (F.I.S.—FABBRICA ITALIANA SINTETICI S.P.A., priority 2018, dated 2022).

What was measured:
[1] = cited from earlier work
[2] = Relative thermodynamic solubility in water at RT by HPLC; type: physicochemical; conditions: for Intensity test average: average of solubility tests #1 and #2, water; for Intensity test average / Solubility test #1 (area counts) / Solubility test #2 (area counts): RT; for Solubility test #1 (area counts) / Solubility test #2 (area counts): water, 24 h stirring, HPLC ETP peak area of saturated solution
Procedure: This suspension was stirred 24 h at RT in order to reach the equilibrium. Then, a sample was filtered and the resulting filtrate was analysed by HPLC by duplicate. The average peak area of ETP gave a relative value of the thermodynamic solubility of each form that can be compared with each other. The solids recovered after filtration were also analysed by XRPD to check that no crystalline phase transformation occurred during the slurring.
The following HPLC conditions were used to determine the relative solubility (due to their short analysis time and good response): • Column: C18 Zorbax Eclipse (XDB), 150×4.6 mm, 5 μm • Sample concentration: Saturated water solution of the ETP monoethanolamine salt • Mobile phase: ACN:MeOH:H2O (55:35:10) at pH=6.0+/−0.2 • Temperature: 27° C. • Flow rate: 1 mL/min • UV detector wavelength: 230 nm • Injection: 5 μL • Run time: 10 min
HPLC ETP peak area in each of the different forms analysed was measured in order to establish their relative solubility. The HPLC analyses were performed by duplicate for each ETP monoethanolamine salt.

[3] = Preliminary stability in water at RT (slurry, XRPD); type: physicochemical; conditions: XRPD at 1, 3, 6 and 24 h
Procedure: A preliminary test stability study in water at RT of 4 ETP monoethanolamine salt Forms was performed in order to observed possible crystalline transitions. A sample of each crystalline form was slurried in water at RT and periodically analysed by XRPD (1, 3, 6 and 24 h) in order to detect possible crystalline transformation.

[4] = Hygroscopicity study by DVS (Dynamic Vapour Sorption); type: physicochemical; conditions: 25° C.
Procedure: Hygroscopicity study was determined by DVS (Dynamic Vapour Sorption) with a Q5000 TA instrument. This is a gravimetric technique that measures how much water is absorbed or desorbed by a sample at different relative humidity (RH). At each RH, the sample mass must be allowed to reach gravimetric equilibrium (or surpassed time limit) before progressing to the next humidity level. Sorption and desorption isotherms were performed at 25° C. over a range of 0-95% RH. The samples gently milled were not previously dried but they were exposed to 0% RH until a stable weight was reached before starting the DVS cycle. This equilibration step allows possible adsorbed humidity to be eliminated.

[5] = Crystalline stability of Form D under accelerated ICH guideline conditions (XRPD); type: physicochemical
Description: […] […] This sample was periodically analysed by XRPD in order to observe possible crystalline transformation or amorphization. Moreover, a sample of ETP monoethanolamine salt Form D stored on a XRPD silicon holder was exposed in a climatic chamber. It is worth noting that these stability conditions are harsher than standard stability conditions due to the high surface of exposition of the solid stored on the XRPD silicon holder. The samples were periodically analysed by XRPD to observe possible crystalline transformation.

Compound: CC1=NN(c2ccc(C)c(C)c2)C(=O)/C1=N\Nc1cccc(-c2cccc(C(=O)O)c2)c1O [Eltrombopag olamine]
- thermally stable up to ([1]; at higher temperature endothermic reaction associated with degradation): about 125 °C
- solubility in water [1]: sparingly soluble in water

Compound: CC1=NN(c2ccc(C)c(C)c2)C(=O)/C1=N\Nc1cccc(-c2cccc(C(=O)O)c2)c1O [Form D1]
- Intensity test average [2]: 2911
- Solubility test #1 (area counts) [2]: 2722 area counts
- Solubility test #2 (area counts) [2]: 3100 area counts
- crystalline stability slurried in water [3]: remained stable 24 h

Compound: CC1=NN(c2ccc(C)c(C)c2)C(=O)/C1=N\Nc1cccc(-c2cccc(C(=O)O)c2)c1O.NCCO [Form H2]
- Intensity test average [2]: 2867
- Solubility test #1 (area counts) [2]: 3068 area counts
- Solubility test #2 (area counts) [2]: 2665 area counts
- crystalline stability slurried in water [3]: remained stable 24 h
- humidity adsorbed (water uptake) ([4]; at 95% RH): 0.6%

Compound: CC1=NN(c2ccc(C)c(C)c2)C(=O)/C1=N\Nc1cccc(-c2cccc(C(=O)O)c2)c1O [Form D]
- crystalline transformation by XRPD ([5]; 14 weeks study period): polymorphic transition, hydrate formation or amorphization was not observed
- time the crystalline form remains stable ([5]; climate chamber-75±5% RH, on XRPD sample holder): at least 14 weeks
- Intensity test average [2]: 8066
- relative solubility in water ([2]; water at RT, ranking among the 4 forms): most soluble form in water at RT
- Solubility test #1 (area counts) [2]: 7930 area counts
- Solubility test #2 (area counts) [2]: 8201 area counts
- crystalline stability slurried in water [3]: remained stable 24 h
- hygroscopicity ([4]; 0-95% RH): not hygroscopic up to 85% RH
